Calls of active or inactive are those of the source. No cut-off for these calls is given here.
Columns and labels:
Mu-type opioid receptor [1] = target: T1, Mu-type opioid receptor (Homo sapiens, UniProt P35372); assay: Displacement of [3H]DAMGO from mu opioid receptor
[2] = target: T2, Delta-type opioid receptor (Homo sapiens, UniProt P41143); assay: Displacement of [3H]p-Cl-DPDPE from delta opioid receptor
[3] = target: Kappa-type opioid receptor (Homo sapiens, UniProt P41145); assay: Displacement of [3H]U-69593 from cloned kappa opioid receptor
Sequence of Kappa-type opioid receptor (P41145 whole entry): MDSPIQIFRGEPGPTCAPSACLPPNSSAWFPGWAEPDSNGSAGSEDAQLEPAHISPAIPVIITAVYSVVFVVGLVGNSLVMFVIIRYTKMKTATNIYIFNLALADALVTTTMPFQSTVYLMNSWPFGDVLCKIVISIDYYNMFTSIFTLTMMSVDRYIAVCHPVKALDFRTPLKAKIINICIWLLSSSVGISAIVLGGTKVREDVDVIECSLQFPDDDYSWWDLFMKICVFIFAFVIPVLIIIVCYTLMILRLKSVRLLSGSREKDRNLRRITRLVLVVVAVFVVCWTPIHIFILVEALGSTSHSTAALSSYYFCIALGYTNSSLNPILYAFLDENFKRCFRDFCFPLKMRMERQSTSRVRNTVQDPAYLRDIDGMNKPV

Homo sapiens = species: Homo sapiens; assay: Selectivity for delta opioid receptor over mu opioid receptor
Mus musculus [4] = assay: Antinociceptive effect in mouse at 30 mg/kg by tail flick assay; format: functional, organism-based; parameters: dose 30 mg/kg
Mus musculus [5] = assay: Antinociceptive effect in mouse at 30 mg/kg by hot plate assay; format: functional, organism-based; parameters: dose 30 mg/kg
Mus musculus [6] = assay: Antinociceptive effect in mouse at 30 mg/kg by antiwrithing assay; format: functional, organism-based; parameters: dose 30 mg/kg
Mus musculus [7] = assay: Antinociceptive effect in mouse at 30 mg/kg by […]; format: functional, organism-based; parameters: dose 30 mg/kg
Mu-type opioid receptor [8] = target: T1, Mu-type opioid receptor; assay: Activity at mu opioid receptor assessed as stimulation of [35S]GTP-gamma-S binding; format: functional
[9] = target: T2, Delta-type opioid receptor; assay: Activity at delta opioid receptor assessed as stimulation of [35S]GTP-gamma-S binding

T1 sequence (P35372 whole entry): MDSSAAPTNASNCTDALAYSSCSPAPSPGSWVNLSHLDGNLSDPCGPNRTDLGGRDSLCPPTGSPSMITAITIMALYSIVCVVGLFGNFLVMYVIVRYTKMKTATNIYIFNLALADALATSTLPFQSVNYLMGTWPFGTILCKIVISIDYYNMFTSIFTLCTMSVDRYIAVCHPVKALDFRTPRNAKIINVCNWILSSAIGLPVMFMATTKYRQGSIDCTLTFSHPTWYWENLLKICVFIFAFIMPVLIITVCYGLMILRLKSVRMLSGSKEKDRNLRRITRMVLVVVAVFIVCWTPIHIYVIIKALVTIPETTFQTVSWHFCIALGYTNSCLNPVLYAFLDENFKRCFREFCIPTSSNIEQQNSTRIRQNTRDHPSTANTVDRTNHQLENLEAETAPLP
T2 sequence (P41143 whole entry): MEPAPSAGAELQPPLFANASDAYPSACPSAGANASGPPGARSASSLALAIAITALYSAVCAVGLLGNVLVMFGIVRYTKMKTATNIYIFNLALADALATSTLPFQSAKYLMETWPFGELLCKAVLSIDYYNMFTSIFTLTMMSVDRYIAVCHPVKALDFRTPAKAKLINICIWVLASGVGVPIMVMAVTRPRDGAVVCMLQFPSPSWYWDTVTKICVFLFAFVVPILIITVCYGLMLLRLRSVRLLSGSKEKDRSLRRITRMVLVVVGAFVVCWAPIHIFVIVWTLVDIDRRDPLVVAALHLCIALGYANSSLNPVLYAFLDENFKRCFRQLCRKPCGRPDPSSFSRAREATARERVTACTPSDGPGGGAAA

CN1CC[C@]23c4c5ccc(O)c4O[C@H]2c2[nH]c4ccc(Br)cc4c2C[C@@]3(O)[C@H]1C5 gave a Ki (Mu-type opioid receptor [1]) of 71 nM, a Ki [2] of 8.6 nM and a Ki [3] of 250 nM. The Ratio Ki (Homo sapiens) was 8, the Activity (Mus musculus [4]) was “inactive” and the Activity (Mus musculus [5]) was “inactive”. For the same compound, the Activity (Mus musculus [6]) was “inactive” and the Activity (Mus musculus [7]) was “inactive”.
In the case of CN1CC[C@]23c4c5ccc(O)c4O[C@H]2c2[nH]c4ccc(F)cc4c2C[C@@]3(O)[C@H]1C5, the Ki (Mu-type opioid receptor [1]) is reported as 21 nM, the Ki [2] is reported as 2.3 nM and the Ki [3] is reported as 310 nM. For the same compound, the Ratio Ki (Homo sapiens) was 9, the Activity (Mus musculus [4]) was “inactive” and the Activity (Mus musculus [5]) was “inactive”. The Activity (Mus musculus [6]) was “inactive”, the Activity (Mus musculus [7]) was “inactive” and the Activity (Mu-type opioid receptor [8]) was 34%. The EC50 (Mu-type opioid receptor [8]) was 1080 nM and the EC50 [9] was 16 nM.
CN1CC[C@]23c4c5ccc(O)c4O[C@H]2c2[nH]c4ccccc4c2C[C@@]3(O)[C@H]1C5 [OXYMORPHINDOLE] was tested, and the Ki (Mu-type opioid receptor [1]) was 105 nM, the Ki [2] was 0.9 nM and the Ratio Ki (Homo sapiens) was 115. The Activity (Mus musculus [4]) was “inactive”, the Activity (Mus musculus [5]) was “inactive” and the Activity (Mus musculus [6]) was “inactive”. For the same compound, the Activity (Mus musculus [7]) was “inactive”.
CN1CC[C@]23c4c5ccc(O)c4O[C@H]2c2[nH]c4ccc(Cl)cc4c2C[C@@]3(O)[C@H]1C5 showed a Ki (Mu-type opioid receptor [1]) of 47 nM, a Ki [2] of 5.1 nM and a Ki [3] of 360 nM. For the same compound, the Ratio Ki (Homo sapiens) was 9, the Activity (Mus musculus [4]) was “inactive” and the Activity (Mus musculus [5]) was “inactive”. For the same compound, the Activity (Mus musculus [6]) was “inactive” and the Activity (Mus musculus [7]) was “inactive”.
CN1CC[C@]23c4c5ccc(O)c4O[C@H]2c2[nH]c4ccc(I)cc4c2C[C@@]3(O)[C@H]1C5 was tested, and the Ki (Mu-type opioid receptor [1]) was 66 nM, the Ki [2] was 3.8 nM and the Ki [3] was 160 nM. The Ratio Ki (Homo sapiens) was 17, the Activity (Mus musculus [4]) was “inactive” and the Activity (Mus musculus [5]) was “inactive”. The Activity (Mus musculus [6]) was “inactive” and the Activity (Mus musculus [7]) was “inactive”.
